Measured values reported in patent US20260069560A1, “COMPOSITIONS AND METHODS OF USE” (UNIVERSITY OF FLORIDA RESEARCH FOUNDATION, INCORPORATED, priority 2022, published 2026).

How the values were obtained:
[1] = system: primary mouse splenic CD8+ T cells; assay: Bioassay for IFNγ stimulation in primary splenic CD8+ T cells, flow cytometric analysis; format: cell-based; conditions: for IFNγ stimulation from primary splenic CD8+ T cells: synthetic compounds, concentration range 0.01-1 mM
Description: Isolates are cultured in 96-well deep well plates for 3 days under anaerobic conditions in MEGA media. Cell-free supernatant is obtained by filtering cultures by […] syringe filtration. Cell-free supernatant is added to the serum-free culture media of primary mouse splenic CD8+ T cells at a ratio of 1:100, followed by 6 hours of incubation. After incubation, cells are harvested and stained for flow cytometric analysis, which is performed on the BD Fortessa LSR, followed by analysis using FlowJo.
FIGS. 11A-11F illustrate that synthetic cis-Bac430 induces dose-dependent stimulation of IFNγ production. Representative results are shown for IFNγ stimulation from primary splenic CD8+ T cells by cis-Bac430 and trans-Bac430 at a concentration range between 0.01-0.25 mM (FIG. 11A) or between 0.01-1 mM (FIG. 11B). P values calculated using Mann-Whitney U test compared to unstimulated negative control and PMA/Ionomycin-stimulated positive control. Representative results are shown for the percent of live CD8+ T cells from the bioassay for IFNγ stimulation by cis-Bac430 and trans-Bac430 at a concentration range between 0.01-0.25 mM (FIG. 11C) or between 0.01-1 mM (FIG. 11D). P values calculated using Mann-Whitney U test compared to unstimulated negative control and PMA/Ionomycin-stimulated positive control. Representative results are shown for mean±SEM of fecal Bac430 concentration in μM normalized to stool weight from SPF, germ free (GF) or six-consort colonized germ free mice 2 weeks post-colonization (FIG. 11E) or for each member of the six-consort following 3 days anaerobic culture (FIG. 11F).
Feces collected from R mice were used as source material for high-throughput microbial isolation performed with the GALT Prospector technology. Bacterial identification was performed using MALDI-TOF Biotyper and Sanger sequencing. The cell free supernatants and <3 kDa small molecules of 183 Bacteroides isolates were screened for their ability to stimulate IFNγ production via a bioassay using primary CD8+ T cells and flow cytometric analysis. A consortium composed of six IFNγ-stimulating isolates or NR feces was transplanted into a gnotobiotic mouse model of lung cancer and treated with anti-PD-1, with or without anti-IFNγ monoclonal antibody depletion. Tumors were harvested at endpoint for flow cytometric analysis, and blood serum for IFNγ ELISA. […] Vacuum and high-performance liquid chromatography were used to identify fractions from the cell free supernatant of a single stimulating Bacteroides isolate which stimulate IFNγ production.
To summarize, small molecule characterization was performed using LC-MS/MS and computation pipelines for structural prediction. […]

[2] = system: LLC subcutaneous allograft tumors; assay: Intratumoral injection of cis-Bac430 in combination with anti-PD-1 therapy in lung tumor-bearing mice; format: in vivo
Description: FIGS. 12A-12G illustrate that intratumoral administration of cis-Bac430 in combination with anti-PD-1 therapy reduces tumor volume and enhances systemic anti-tumor immunity. An experimental schematic is shown for testing anti-PD-1 mediated anti-tumor effect in combination with intratumoral injection of cis-Bac430 or DMSO control (FIG. 12A). Representative results are shown for the growth curve of LLC subcutaneous allograft tumors receiving intratumoral injection of either cis-Bac430 (0.043 mg/mouse) or DMSO alone at the same time as anti-PD-1 treatment or saline control (FIG. 12n). Each point represents tumor volume mean±SEM. At day 20, P values are calculated by Mann-Whitney U test. Representative results are shown for the mean±SEM of tumor weight at the endpoint for mice treated with an anti-PD-1 monoclonal antibody or saline control that received intratumoral injection of either cis-Bac430 or DMSO (FIG. 12C). P values are calculated by Mann-Whitney U test. Representative results are shown for the mean±SEM of intratumoral CD8+ frequency at endpoint for mice treated with an anti-PD-1 monoclonal antibody or saline control that received intratumoral injection of either cis-Bac430 or DMSO (FIG. 12D). P values are calculated by Mann-Whitney U test. Representative results are shown for the mean±SEM of intratumoral IFNγ+CD8+ frequency at endpoint for mice treated with an anti-PD-1 monoclonal antibody or saline control that received intratumoral injection of either cis-Bac430 or DMSO (FIG. 12E). P values are calculated by Mann-Whitney U test. Representative results are shown for the mean±SEM of splenic CD8+ frequency at endpoint for mice treated with an anti-PD-1 monoclonal antibody or saline control that received intratumoral injection of either cis-Bac430 or DMSO (FIG. 12F). P values are calculated by Mann-Whitney U test. Representative results are shown for the mean±SEM of splenic IFNγ+CD8+ frequency at endpoint for mice treated with an anti-PD-1 monoclonal antibody or saline control that received intratumoral injection of either cis-Bac430 or DMSO (FIG. 12G). P values are calculated by Mann-Whitney U test.
Lung tumor-bearing mice were injected intratumorally with a 10 μL volume of either 10 mM (0.043 mg/dose) cis-Bac430 or DMSO on each day of anti-PD-1 therapy (FIG. 12A).

[3] = combined with anti-PD-1, endpoint
[4] = intratumoral 0.043 mg/dose on each day of anti-PD-1 therapy, compared to anti-PD-1 or DMSO injection
[5] = intratumoral administration, endpoint

Row | Compound | IFNγ stimulation from primary splenic CD8+ T cells [1] | proliferative effect on CD8+ T cells (percent of live CD8+ T cells) ([1]; higher concentrations) | IFNγ stimulation from primary splenic CD8+ T cells ([1]; listed as Cis-Bac430) | frequency of intratumoral CD8+ T cells [2, 3] | tumor infiltrating cytotoxic IFNγ+CD8+ T cells [2, 3] | tumor volume at endpoint [2, 4] | tumor weight at endpoint [2, 4] | splenic IFNγ+CD8+ T cells [2, 5] | splenic overall CD8+ T cell frequency [2, 5]
1 | CCCCCC/C=C/CCCCCCCCCC(=O)N[C@@H](Cc1ccccc1)C(=O)O [trans-Bac430] | does not demonstrate bioactivity |  |  |  |  |  |  |  | 
2 | CCCCCC/C=C\CCCCCCCCCC(=O)N[C@@H](Cc1ccccc1)C(=O)O [cis-Bac430] | dose dependent bioactivity | mild proliferative effect | robustly stimulate IFNγ | increased frequency | trend toward increased | significantly smaller | significantly smaller | trend toward increased | decreased
